The text below walks through data of patent US20040197416A1, “Nanocapsules containing a steroid for cosmetic compositions” (priority 2001, published 2004).

The subject of one data set is skin. As to conditions: rats; cited from earlier work.
The subject of a further data set is human keratinocytes. As to conditions: cited from earlier work.
A further data set relates to fibroblasts. As to conditions: cited from earlier work.
Data set [1] is described as follows: Solubility of DHEA in various oily solvents (excess DHEA, supernatant analysed by HPLC). It counts as physicochemical. The following applies: for RT solubility: room temperature (25° C.), after 24 hours; for solubility of DHEA: comparative. Here is the method: The solubility measurement was performed in the following manner. DHEA was dispersed, in excess, in the solvent under consideration, and preheated to 60° C. This temperature was maintained for one hour with stirring using a magnetic bar. The suspension was then cooled to room temperature (RT, 25° C.). After 24 hours, the suspension was centrifuged to remove the undissolved DHEA crystals. The supernatant was taken up and the absence of DHEA crystals was checked by cross-polarized optical microscopy. This supernatant was then analysed by HPLC. It is considered that the amount of DHEA detected corresponds to its maximum solubility in the solvent under consideration.

Regarding `C[C@]12CC[C@H](O)CC1=C[C@@H](O)[C@@H]1[C@@H]2CC[C@]2(C)C(=O)CC[C@@H]12` [7α-hydroxy DHEA], in the data set on skin, the “elastin and collagen content of the skin” value is reported as “increases”; the “thickness of the dermis” value is “increases”. Besides, in the data set on human keratinocytes, the “viability of human keratinocytes” value is “increase”. In the data set with fibroblasts, the proliferation of fibroblasts entry is “increase”.

On to `C[C@]12CC[C@H](O)CC1=CC[C@@H]1[C@@H]2CC[C@]2(C)C(=O)CC[C@@H]12` [DHEA, dehydroepiandrosterone], for which the RT solubility in data set [1] (DHEA in Capric/caprylic triglycerides) is listed as 1.77%; in data set [1] (DHEA in Isopropyl palmitate) it was 1.37%; in data set [1] (DHEA in Isostearyl neopentanoate), 1.30%; in data set [1] (DHEA in Jojoba oil), 1.10%; in data set [1] (DHEA in Octyl palmitate) it was 1%; in data set [1] (DHEA in PPG-15 stearyl ether), 2.68%. The RT solubility in data set [1] (DHEA in Sesame oil) is 1.40%; in data set [1] (DHEA in α-Tocopherol) it was 1.65%. Moreover, the “solubility of DHEA” value in data set [1] (in cetearyl isononanoate) was found to be 0.83%; in data set [1] (in cyclopentasiloxane), 0.04%; in data set [1] (in liquid paraffin) it was 0%; in data set [1] (in polydimethylsiloxane (200-350 cs)), 0.17%; in data set [1] (in squalane) it was 0.10%.
